In patent publication US20220112479A1, “COMPOUNDS STABILIZING AMYLASES IN LIQUIDS” (BASF SE, priority 2018, published 2022):

Molecular target: T1, Savinase Ultra 16.0L (Lederbergia lenta, UniProt P29600)
T1 construct: purchased Sigma-Aldrich
T1 sequence (P29600 1-269): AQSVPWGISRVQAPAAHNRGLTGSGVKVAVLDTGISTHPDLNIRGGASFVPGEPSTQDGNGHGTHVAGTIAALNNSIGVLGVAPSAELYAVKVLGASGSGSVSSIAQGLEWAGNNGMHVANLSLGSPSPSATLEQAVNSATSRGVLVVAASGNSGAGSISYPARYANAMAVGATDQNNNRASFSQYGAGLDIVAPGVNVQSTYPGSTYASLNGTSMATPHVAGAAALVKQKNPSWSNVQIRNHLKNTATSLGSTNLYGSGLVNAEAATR
Assay: protease storage stability in liquid formulation (Suc-AAPF-pNA substrate)
Assay type: biochemical
Details: storage at 37° C.
Protocol: Base test formulations were manufactured by making base formulations I to V by mixing the components according to Table 1.
Protease used: (S) Savinase Ultra 16.0L (CAS-No. 9014-01-1, EC-No. 232-752-2) was purchased from Sigma-Aldrich
The respective component (a) or comparative compound was added, if applicable, to the respective base formulation in amounts as indicated in Table 1.
The amount of protease as provided in Table 1 refers to active protein.
Water was added to accomplish the balance to 100.
Protease activity at certain points in time as indicated in Table 3 was be determined by employing Succinyl-Ala-Ala-Pro-Phe-p-nitroanilide (Suc-AAPF-pNA, short AAPF) as substrate. pNA is cleaved from the substrate molecule by proteolytic cleavage, resulting in release of yellow color of free pNA which was determined by measuring […]. Measurements were done at 20° C.
The proteolytic activity values provided in Table 3 were calculated referring to the value determined in the reference formulation at the time 0.
The nomenclature of formulations is as follows: the Roman number before the full stop characterizes the base formulation, the Arabian number the type of salt (A.#inventive salt (component (a)); B.# comparative compound). Zero (“0”): no salt, but diethylene glycol.

[1] = base formulation I., 1.5 wt % component (a), 3 d
[2] = base formulation I., 1.5 wt % component (a), 7 d
[3] = base formulation I., 1.5 wt % component (a), 14 d
[4] = base formulation I., 1.5 wt % component (a), 21 d
[5] = base formulation I., 1.5 wt % component (a), 28 d
[6] = base formulation I., 1.5 wt % component (a), 42 d
[7] = base formulation I., 1.5 wt % component (a), T0
[8] = base formulation II., 1.5 wt % component (a), 3 d
[9] = base formulation II., 1.5 wt % component (a), 7 d
[10] = base formulation II., 1.5 wt % component (a), 14 d
[11] = base formulation II., 1.5 wt % component (a), 21 d
[12] = base formulation II., 1.5 wt % component (a), 28 d
[13] = base formulation II., 1.5 wt % component (a), 42 d
[14] = base formulation II., 1.5 wt % component (a), T0
[15] = base formulation III., 1.5 wt % component (a), 3 d
[16] = base formulation III., 1.5 wt % component (a), 7 d
[17] = base formulation III., 1.5 wt % component (a), 14 d
[18] = base formulation III., 1.5 wt % component (a), 21 d
[19] = base formulation III., 1.5 wt % component (a), 28 d
[20] = base formulation III., 1.5 wt % component (a), 42 d
[21] = base formulation III., 1.5 wt % component (a), T0
[22] = base formulation IV., 2.0 wt % component (a), 3 d
[23] = base formulation IV., 2.0 wt % component (a), 7 d
[24] = base formulation IV., 2.0 wt % component (a), 14 d
[25] = base formulation IV., 2.0 wt % component (a), 21 d
[26] = base formulation IV., 2.0 wt % component (a), 28 d
[27] = base formulation IV., 2.0 wt % component (a), 42 d
[28] = base formulation IV., 2.0 wt % component (a), T0
[29] = base formulation V., 2.0 wt % component (a), 3 d
[30] = base formulation V., 2.0 wt % component (a), 7 d
[31] = base formulation V., 2.0 wt % component (a), 14 d
[32] = base formulation V., 2.0 wt % component (a), 21 d
[33] = base formulation V., 2.0 wt % component (a), 28 d
[34] = base formulation V., 2.0 wt % component (a), 42 d
[35] = base formulation V., 2.0 wt % component (a), T0

## Diethylcitrate [A.7]
[1]
  protease activity, referring to reference formulation at time 0: 94
[2]
  protease activity, referring to reference formulation at time 0: 91
[3]
  protease activity, referring to reference formulation at time 0: 85
[4]
  protease activity, referring to reference formulation at time 0: 81
[5]
  protease activity, referring to reference formulation at time 0: 76
[6]
  protease activity, referring to reference formulation at time 0: 63
[7]
  protease activity, referring to reference formulation at time 0: 100
[8]
  protease activity, referring to reference formulation at time 0: 98
[9]
  protease activity, referring to reference formulation at time 0: 93
[10]
  protease activity, referring to reference formulation at time 0: 88
[11]
  protease activity, referring to reference formulation at time 0: 85
[12]
  protease activity, referring to reference formulation at time 0: 80
[13]
  protease activity, referring to reference formulation at time 0: 71
[14]
  protease activity, referring to reference formulation at time 0: 100
[15]
  protease activity, referring to reference formulation at time 0: 97
[16]
  protease activity, referring to reference formulation at time 0: 95
[17]
  protease activity, referring to reference formulation at time 0: 92
[18]
  protease activity, referring to reference formulation at time 0: 87
[19]
  protease activity, referring to reference formulation at time 0: 74
[20]
  protease activity, referring to reference formulation at time 0: 64
[21]
  protease activity, referring to reference formulation at time 0: 100
[22]
  protease activity, referring to reference formulation at time 0: 96
[23]
  protease activity, referring to reference formulation at time 0: 88
[24]
  protease activity, referring to reference formulation at time 0: 79
[25]
  protease activity, referring to reference formulation at time 0: 74
[26]
  protease activity, referring to reference formulation at time 0: 68
[27]
  protease activity, referring to reference formulation at time 0: 62
[28]
  protease activity, referring to reference formulation at time 0: 98
[29]
  protease activity, referring to reference formulation at time 0: 93
[30]
  protease activity, referring to reference formulation at time 0: 88
[31]
  protease activity, referring to reference formulation at time 0: 79
[32]
  protease activity, referring to reference formulation at time 0: 72
[33]
  protease activity, referring to reference formulation at time 0: 66
[34]
  protease activity, referring to reference formulation at time 0: 54
[35]
  protease activity, referring to reference formulation at time 0: 97

## CCOC(=O)CC(O)(CC(=O)OCC)C(=O)OCC [A.1, Triethylcitrate]
[1]
  protease activity, referring to reference formulation at time 0: 97
[2]
  protease activity, referring to reference formulation at time 0: 94
[3]
  protease activity, referring to reference formulation at time 0: 89
[4]
  protease activity, referring to reference formulation at time 0: 83
[5]
  protease activity, referring to reference formulation at time 0: 79
[6]
  protease activity, referring to reference formulation at time 0: 67
[7]
  protease activity, referring to reference formulation at time 0: 100
[8]
  protease activity, referring to reference formulation at time 0: 99
[9]
  protease activity, referring to reference formulation at time 0: 96
[10]
  protease activity, referring to reference formulation at time 0: 90
[11]
  protease activity, referring to reference formulation at time 0: 85
[12]
  protease activity, referring to reference formulation at time 0: 80
[13]
  protease activity, referring to reference formulation at time 0: 69
[14]
  protease activity, referring to reference formulation at time 0: 100
[15]
  protease activity, referring to reference formulation at time 0: 99
[16]
  protease activity, referring to reference formulation at time 0: 93
[17]
  protease activity, referring to reference formulation at time 0: 88
[18]
  protease activity, referring to reference formulation at time 0: 85
[19]
  protease activity, referring to reference formulation at time 0: 74
[20]
  protease activity, referring to reference formulation at time 0: 67
[21]
  protease activity, referring to reference formulation at time 0: 100
[22]
  protease activity, referring to reference formulation at time 0: 96
[23]
  protease activity, referring to reference formulation at time 0: 92
[24]
  protease activity, referring to reference formulation at time 0: 86
[25]
  protease activity, referring to reference formulation at time 0: 80
[26]
  protease activity, referring to reference formulation at time 0: 72
[27]
  protease activity, referring to reference formulation at time 0: 65
[28]
  protease activity, referring to reference formulation at time 0: 98
[29]
  protease activity, referring to reference formulation at time 0: 94
[30]
  protease activity, referring to reference formulation at time 0: 90
[31]
  protease activity, referring to reference formulation at time 0: 85
[32]
  protease activity, referring to reference formulation at time 0: 81
[33]
  protease activity, referring to reference formulation at time 0: 75
[34]
  protease activity, referring to reference formulation at time 0: 65
[35]
  protease activity, referring to reference formulation at time 0: 99

## CCCOC(=O)CC(O)(CC(=O)OCCC)C(=O)OCCC [A.2, Tripropylcitrate]
[1]
  protease activity, referring to reference formulation at time 0: 100
[2]
  protease activity, referring to reference formulation at time 0: 95
[3]
  protease activity, referring to reference formulation at time 0: 90
[4]
  protease activity, referring to reference formulation at time 0: 85
[5]
  protease activity, referring to reference formulation at time 0: 81
[6]
  protease activity, referring to reference formulation at time 0: 71
[7]
  protease activity, referring to reference formulation at time 0: 101
[8]
  protease activity, referring to reference formulation at time 0: 100
[9]
  protease activity, referring to reference formulation at time 0: 96
[10]
  protease activity, referring to reference formulation at time 0: 91
[11]
  protease activity, referring to reference formulation at time 0: 87
[12]
  protease activity, referring to reference formulation at time 0: 83
[13]
  protease activity, referring to reference formulation at time 0: 72
[14]
  protease activity, referring to reference formulation at time 0: 101
[15]
  protease activity, referring to reference formulation at time 0: 100
[16]
  protease activity, referring to reference formulation at time 0: 95
[17]
  protease activity, referring to reference formulation at time 0: 93
[18]
  protease activity, referring to reference formulation at time 0: 88
[19]
  protease activity, referring to reference formulation at time 0: 83
[20]
  protease activity, referring to reference formulation at time 0: 73
[21]
  protease activity, referring to reference formulation at time 0: 101
[29]
  protease activity, referring to reference formulation at time 0: 95
[30]
  protease activity, referring to reference formulation at time 0: 92
[31]
  protease activity, referring to reference formulation at time 0: 87
[32]
  protease activity, referring to reference formulation at time 0: 82
[33]
  protease activity, referring to reference formulation at time 0: 77
[34]
  protease activity, referring to reference formulation at time 0: 70
[35]
  protease activity, referring to reference formulation at time 0: 100

## CCOC(=O)CC(CC(=O)OCC)(OC(C)=O)C(=O)OCC [A.5, Acetyltriethylcitrate]
[1]
  protease activity, referring to reference formulation at time 0: 96
[2]
  protease activity, referring to reference formulation at time 0: 90
[3]
  protease activity, referring to reference formulation at time 0: 84
[4]
  protease activity, referring to reference formulation at time 0: 80
[5]
  protease activity, referring to reference formulation at time 0: 76
[6]
  protease activity, referring to reference formulation at time 0: 62
[7]
  protease activity, referring to reference formulation at time 0: 98
[15]
  protease activity, referring to reference formulation at time 0: 98
[16]
  protease activity, referring to reference formulation at time 0: 92
[17]
  protease activity, referring to reference formulation at time 0: 83
[18]
  protease activity, referring to reference formulation at time 0: 79
[19]
  protease activity, referring to reference formulation at time 0: 71
[20]
  protease activity, referring to reference formulation at time 0: 65
[21]
  protease activity, referring to reference formulation at time 0: 100
